The text below walks through data of US20070142437A1, “CHEMICAL COMPOUNDS” (priority 2005, published 2007).

As a reminder, the IC50 is the concentration needed to halve the response being measured.

Bounds are passed on as bounds.

Type in all cases: biochemical
Assay [1] concerns the target T1, CDK4 (Homo sapiens, UniProt P11802).
T1 construct: made in house
The assay is described as follows: CDK4 substrate phosphorylation assay (Rb protein, 33P-ATP). Particulars: Inhibition of CDK4. How it is done:
(§1) The compounds of the present invention have valuable pharmacologic properties. Different compounds from this class are particularly effective at inhibiting CDK2 and/or CDK4 enzymes at concentrations, which range from 0.0001 to 1 μM and additionally show specificity relative to other kinases. Substrate phosphorylation assays were carried out as follows:
Cyclin D1 and cyclin-dependent kinase 4 were expressed utilizing a baculovirus expression system. The catalytic activity of CDK4 protein was assayed by measuring the phosphorylation of Rb protein. A truncated Rb protein (residues 773-928 of the native retinoblastoma protein, fused to glutathione S-transferase to facilitate purification) was used as the phosphoryl acceptor. The assay conditions were 100 mM HEPES (N-[2-hydroxyethyl]piperzine-N′-[2-ethanesulfonic acid]), pH 7.5, 0.5 μM GST-Rb protein, 1 μCi/mL [^33P]-ATP (1 nM-20 μM), 5-20 mM MgCl2, 2.5 mM EDTA, 1 mM dithiotheitol, 0.2 mg/mL bovine serum albumin, 2% (v/v) dimethyl sulfoxide (DMSO), CDK4 enzyme (5-50 nM) in a final volume of 50 μL. Reactions were incubated for time periods of 10-60 min at 30° C. and terminated by the addition of 50 μL quench (1 mM ATP/100 mM EDTA, pH 7.0). Detection of protein phosphorylation was accomplished by scintillation counting following collection of protein in 96 well plates coated with Glutathione or trapping of protein onto phosphocellulose filters. Counts detected by these methodologies minus the appropriate background were assumed to be proportional to the reaction initial rates. IC50 values were determined by measuring enzyme activity in the presence of different inhibitor concentrations (0.1 nM to 50 μM). IC50s were determined by a least squares fit to the equation CPM=Vmax*(1−([I]/(K+[I])))+nsb, or pIC50s were determined by a fit to the equation CPM=nsb+(Vmax−nsb)/(1+(x/10^x−pIC50)), where nsb are the background counts.

In assay [2] the target is T2, CDK2 (Homo sapiens, UniProt P24941).
T2 construct: made in house
The experiment in a line: CDK2 substrate phosphorylation assay (biotinylated peptide, 32P-ATP). Particulars: Inhibition of CDK2. How it is done:
as §1
Cyclin dependent protein kinase 2 assays utilized the peptide Biotin-aminohexyl-ARRPMSPKKKA-NH2 as phosphoryl group acceptor. CDK2 was expressed utilizing a baculovirus expression system and was partially purified to comprise 20-80% of total protein, with no detectable competing reactions present. Typically, assays were performed by incubating enzyme (0.2-10 nM), with and without inhibitor, peptide substrate (1-10 nM), [g-^32P]ATP (1-20 nM), and 10-20 mM Mg^2+ for periods of time generally within the range 10-120 minutes. Reactions were terminated with 0.2-2 volumes of either 20% acetic acid or 50-100 mM EDTA buffered to pH 7 (substrate consumption <20%). The buffer employed in enzyme assay was 100 mM HEPES pH 7.5 containing 0.1 mg/mL BSA and 5% DMSO. Inhibitors were diluted in 100% DMSO prior to addition into the assay. Detection of peptide phosphorylation was accomplished by scintillation counting following either collection of peptide onto phosphocellulose filters (for reactions stopped with acetic acid), collection of peptide in wells of 96 well plates coated with Streptavidin (Pierce) (reactions were stopped with EDTA), or addition of Avidin coated Scintillant impregnated beads (Scintillation Proximity Assays from Amersham, reactions were stopped with EDTA). Counts detected by any of these methodologies minus the appropriate background (assays with additional 40 mM EDTA or lacking peptide substrate) were assumed to be proportional to the reaction initial rates, and IC50s were determined by a least squares fit to the equation CPM=Vmax*(1−([I]/(K+[I])))+nsb, or −pIC50s were determined by a fit to the equation CPM=nsb+(Vmax−nsb)/(1+(x/10^x−pIC50)), where nsb are the background counts. Filters are washed four times with 75 mM phosphoric acid. Radioactivity was determined by liquid scintillation counting.

Assay [3] addresses hVEGFR2 (Homo sapiens, UniProt P35968). The experiment in a line: VEGFR2 HTRF assay. Particulars: Inhibition of VEGFR2. How it is done:
The compounds of the present invention elicit important and measurable pharmacological responses. Different compounds from this class are particularly effective at inhibiting VEGFR2 enzymes, as described by the VEGFR2 HTRF assay below, at concentrations, which range from 0.0001 to 1 μM.
The assays were performed in 96-well black plates. 10 nM hVEGFR2 was used to phosphorylate 0.36 μM peptide (Biotin-Ahx-EEEEYFELVAKKKK) in the presence of 75 μM ATP, 5 mM MgCl2, 0.3 mM DTT, 0.1 mg/ml BSA, and 0.1 M HEPES (pH 7.5). 10 μl 0.5 M EDTA was added to reactions as negative controls. The 50 μl kinase reaction with or without inhibitors in 5% DMSO was carried out at room temperature for 45 minutes, then stopped by 40 μl of 125 mM EDTA. 2.4 μg/ml Streptavidin-APC and 0.15 μg/ml Eu-α-pY, in the presence of 0.1 mg/ml BSA, 0.1 M HEPES (pH7.5), were added to a final volume of 140 μl. The plate was incubated for 10 min at room temperature (22° C.) and read on the Victor with the time resolved fluorescence mode by exciting at 340 nm and reading the emission at 665 nm.
• Peptide from Synpep (Dublin, Calif.) • ATP, MgCl2, DTT, BSA, HEPES, EDTA, DMSO from Sigma Streptavidin-APC from Molecular Probes (Eugene, Oreg.) • Eu-α-pY from EG&G Wallac (Gaithersburg, Md.)

T1 sequence (P11802 whole entry, species assumed): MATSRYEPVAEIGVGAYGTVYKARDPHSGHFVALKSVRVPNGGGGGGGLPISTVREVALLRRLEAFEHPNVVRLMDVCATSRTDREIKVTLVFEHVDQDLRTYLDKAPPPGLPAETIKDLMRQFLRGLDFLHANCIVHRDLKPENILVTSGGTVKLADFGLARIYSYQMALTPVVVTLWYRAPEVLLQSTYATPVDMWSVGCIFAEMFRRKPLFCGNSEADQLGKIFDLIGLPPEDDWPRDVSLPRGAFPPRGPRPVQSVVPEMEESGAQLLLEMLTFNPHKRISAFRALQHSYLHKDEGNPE
T1 sequence (P24385 whole entry partner, species assumed): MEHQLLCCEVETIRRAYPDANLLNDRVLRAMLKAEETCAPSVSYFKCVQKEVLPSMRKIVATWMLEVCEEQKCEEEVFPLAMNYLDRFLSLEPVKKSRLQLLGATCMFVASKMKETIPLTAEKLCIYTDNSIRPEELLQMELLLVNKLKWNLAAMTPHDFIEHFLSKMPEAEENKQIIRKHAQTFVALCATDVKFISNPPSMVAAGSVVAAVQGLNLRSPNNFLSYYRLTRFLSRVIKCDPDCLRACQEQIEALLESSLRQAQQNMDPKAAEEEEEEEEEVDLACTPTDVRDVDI
Sequence of hVEGFR2 (P35968 20-1356): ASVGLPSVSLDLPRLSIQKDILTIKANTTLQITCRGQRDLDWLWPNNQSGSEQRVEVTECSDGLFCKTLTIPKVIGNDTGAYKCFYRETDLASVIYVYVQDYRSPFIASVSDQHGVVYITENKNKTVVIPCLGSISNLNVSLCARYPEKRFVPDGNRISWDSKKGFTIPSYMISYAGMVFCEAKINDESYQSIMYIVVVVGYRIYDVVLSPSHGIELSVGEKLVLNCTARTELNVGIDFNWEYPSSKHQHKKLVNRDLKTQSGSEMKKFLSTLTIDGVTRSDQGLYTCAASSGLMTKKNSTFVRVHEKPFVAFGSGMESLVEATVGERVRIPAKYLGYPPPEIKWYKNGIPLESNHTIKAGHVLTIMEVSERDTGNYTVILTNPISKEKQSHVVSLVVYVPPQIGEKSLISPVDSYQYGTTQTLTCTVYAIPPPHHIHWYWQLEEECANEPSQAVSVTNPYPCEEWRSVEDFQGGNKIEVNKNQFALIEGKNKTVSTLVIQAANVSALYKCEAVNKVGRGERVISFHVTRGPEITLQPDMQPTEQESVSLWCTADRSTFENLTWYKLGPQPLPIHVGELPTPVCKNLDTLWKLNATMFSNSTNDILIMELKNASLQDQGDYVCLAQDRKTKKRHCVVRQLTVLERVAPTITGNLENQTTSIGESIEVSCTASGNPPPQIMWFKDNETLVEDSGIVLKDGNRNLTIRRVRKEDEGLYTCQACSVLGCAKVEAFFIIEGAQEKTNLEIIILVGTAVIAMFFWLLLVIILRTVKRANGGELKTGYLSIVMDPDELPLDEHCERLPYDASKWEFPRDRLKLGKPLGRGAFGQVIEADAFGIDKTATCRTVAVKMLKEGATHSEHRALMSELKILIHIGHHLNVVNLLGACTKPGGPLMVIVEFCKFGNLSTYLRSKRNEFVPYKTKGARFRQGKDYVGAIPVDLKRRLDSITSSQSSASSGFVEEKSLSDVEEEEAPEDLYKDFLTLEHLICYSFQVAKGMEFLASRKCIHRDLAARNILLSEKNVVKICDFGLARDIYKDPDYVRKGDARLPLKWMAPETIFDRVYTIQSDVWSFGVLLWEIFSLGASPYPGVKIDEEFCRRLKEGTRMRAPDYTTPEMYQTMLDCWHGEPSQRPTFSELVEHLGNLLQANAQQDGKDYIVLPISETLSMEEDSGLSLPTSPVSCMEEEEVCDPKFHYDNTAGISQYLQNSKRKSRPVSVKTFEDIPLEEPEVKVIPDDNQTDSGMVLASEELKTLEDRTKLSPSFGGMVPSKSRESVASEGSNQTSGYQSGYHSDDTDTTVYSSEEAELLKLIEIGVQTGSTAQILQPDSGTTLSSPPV

`CN1CCN(c2ccc(Nc3ncc(-c4cccc(OC5CCCCC5)c4)o3)cc2)CC1` [Example 18, 5-[3-(cyclohexyloxy)phenyl]-N-[4-(4-methylpiperazin-1-yl)phenyl]-1,3-oxazol-2-amine]: the results for the IC50 in assay [1], in assay [2] and in assay [3] were under 100 nM, under 100 nM and under 1000 nM, respectively.
`COc1cccc(-c2cnc(Nc3ccc(N4CCN(C)CC4)c(Cl)c3)o2)c1` [Example 19, N-[3-chloro-4-(4-methylpiperazin-1-yl)phenyl]-5-(3-methoxyphenyl)-1,3-oxazol-2-amine]: the IC50 in assay [1] is under 100 nM; in assay [2], under 1000 nM; in assay [3], under 1000 nM.
As to `COc1cccc(-c2cnc(Nc3ccc(N4CCN(C)CC4)c(F)c3)o2)c1` [Example 20, N-[3-fluoro-4-(4-methylpiperazin-1-yl)phenyl]-5-(3-methoxyphenyl)-1,3-oxazol-2-amine], the IC50 in assay [1] is under 100 nM; in assay [2], under 1000 nM; in assay [3] it was under 1000 nM.
In the case of `COc1cccc(-c2cnc(Nc3ccc(N4CCN(C)CC4)c(C(F)(F)F)c3)o2)c1` [Example 21, 5-(3-Methoxyphenyl)-N-[4-(4-methylpiperazin-1-yl)-3-(trifluoromethyl)phenyl]-1,3-oxazol-2-amine], the IC50 in assay [1] was under 100 nM; in assay [2] it was under 1000 nM; in assay [3], under 1000 nM.
Regarding `COc1cccc(-c2cnc(Nc3ccc(N4CCN(C)CC4)c(C)c3)o2)c1` [Example 22, 5-(3-Methoxyphenyl)-N-[3-methyl-4-(4-methylpiperazin-1-yl)phenyl]-1,3-oxazol-2-amine], the IC50 is under 100 nM in assay [1], under 1000 nM in assay [2] and under 100 nM in assay [3].
Take `COc1cccc(-c2cnc(Nc3ccc(N4CC(C)NC(C)C4)cc3)o2)c1` (stereo not drawn) [Example 23, N-[4-(3,5-dimethylpiperazin-1-yl)phenyl]-5-(3-methoxyphenyl)-1,3-oxazol-2-amine]: the IC50 is under 1000 nM in assay [1], under 100 nM in assay [2] and under 1000 nM in assay [3].
`COc1cccc(-c2cnc(Nc3ccc(N4CCN(C)CC4)cc3C)o2)c1` [Example 24, 5-(3-methoxyphenyl)-N-[2-methyl-4-(4-methylpiperazin-1-yl)phenyl]-1,3-oxazol-2-amine]: the IC50 in assay [1] is under 1000 nM; in assay [2], under 10000 nM; in assay [3] it was under 1000 nM.
On to `CN1CCN(c2ccc(Nc3ncc(-c4cccc(OC5CCCC5)c4)o3)cc2C(F)(F)F)CC1` [Example 25, 5-[3-(Cyclopentyloxy)phenyl]-N-[4-(4-methylpiperazin-1-yl)-3-(trifluoromethyl)phenyl]-1,3-oxazol-2-amine], for which the IC50 in assay [1] is under 100 nM; in assay [2] it was under 100 nM; in assay [3], under 1000 nM.
As to `CN1CCN(c2ccc(Nc3ncc(-c4cccc(OC5CCCC5)c4)o3)cc2Cl)CC1` [Example 26, N-[3-Chloro-4-(4-methylpiperazin-1-yl)phenyl]-5-[3-(cyclopentyloxy)phenyl]-1,3-oxazol-2-amine], the IC50 in assay [1] is under 100 nM; in assay [2], under 100 nM; in assay [3], under 1000 nM.
With `Cc1cc(Nc2ncc(-c3cccc(OC4CCCC4)c3)o2)ccc1N1CCN(C)CC1` [Example 27, 5-[3-(cyclopentyloxy)phenyl]-N-[3-methyl-4(4-methylpiperazin-1-yl)phenyl]-1,3-oxazol-2-amine], the IC50 in assay [1], in assay [2] and in assay [3] was under 100 nM each time.
Turning to `CN1CCN(c2ccc(Nc3ncc(-c4cccc(OC5CCCC5)c4)o3)cc2F)CC1` [Example 28, 5-[3-(Cyclopentyloxy)phenyl]-N-[3-fluoro-4-(4-methylpiperazin-1-yl)phenyl]-1,3-oxazol-2-amine], the IC50 in assay [1], in assay [2] and in assay [3] was under 100 nM each time.
Take `c1cc(OC2CCCC2)cc(-c2cnc(Nc3ccc(N4CCSCC4)cc3)o2)c1` [Example 30, 5-[3-(Cyclopentyloxy)phenyl]-N-(4-thiomorpholin-4-ylphenyl)-1,3-oxazol-2-amine]: the IC50 in assay [1] is under 1000 nM; in assay [2], under 10000 nM; in assay [3], under 1000 nM.
Turning to `COc1cccc(-c2cnc(Nc3ccc(N4CCN(C)CC4)nc3)o2)c1` [Example 31, N-[5-(3-methoxyphenyl)-1,3-oxazol-2-yl]-6-(4-methylpiperazin-1-yl)pyridin-3-amine], the IC50 in assay [1], in assay [2] and in assay [3] was under 1000 nM in each case.
As to `CN1CCN(c2ccc(Nc3ncc(-c4cccc(OC5CCCC5)c4)o3)cn2)CC1` [Example 34, N-{5-[3-(cyclopentyloxy)phenyl]-1,3-oxazol-2-yl}-6-(4-methylpiperazin-1-yl)pyridin-3-amine], the figures for the IC50 in assay [1], in assay [2] and in assay [3] were under 100 nM, under 100 nM and under 1000 nM, respectively.
For the molecule `CCN(CC)c1ccc(Nc2ncc(-c3cccc(OC)c3)o2)cn1` [Example 35, N^2,N^2-diethyl-N^5-[5-(3-methoxyphenyl)-1,3-oxazol-2-yl]pyridine-2,5-diamine], the IC50 in assay [1], in assay [2] and in assay [3] was under 10000 nM in each case.
Turning to `CCN(CC)c1ccc(Nc2ncc(-c3cccc(OC4CCCC4)c3)o2)cn1` [Example 36, N^5-{5-[3-(cyclopentyloxy)phenyl]-1,3-oxazol-2-yl}-N^2,N^2-diethylpyridine-2,5-diamine], the IC50 was under 1000 nM in assay [1], under 1000 nM in assay [2] and under 10000 nM in assay [3].
For `Cc1cc(Nc2ncc(-c3cccc(OC4CCCC4)c3)o2)cnc1N1CCN(C)CC1` [Example 37, N-{5-[3-(cyclopentyloxy)phenyl]-1,3-oxazol-2-yl}-5-methyl-6-(4-methylpiperazin-1-yl)pyridin-3-amine], the IC50 in assay [1] was under 100 nM; in assay [2], under 1000 nM; in assay [3], under 1000 nM.
Regarding `COc1cccc(-c2cnc(Nc3ccc(CN4CCN(C)CC4)cc3)o2)c1` [Example 38, 5-(3-methoxyphenyl)-N-{4-[(4-methylpiperazin-1-yl)methyl]phenyl}-1,3-oxazol-2-amine], the half-maximal inhibitory concentration (IC50) in assay [1], in assay [2] and in assay [3] was under 1000 nM each time.
For the molecule `CN1CCN(Cc2ccc(Nc3ncc(-c4ccccc4)o3)cc2)CC1` [Example 39, N-{4-[(4-methylpiperazin-1-yl)methyl]phenyl}-5-phenyl-1,3-oxazol-2-amine], the IC50 in assay [1], in assay [2] and in assay [3] was under 1000 nM throughout.
